In patent US20240124408A1 (Sanofi, priority 2020, published 2024):
pEC50: −log10 of the molar value. Where a name gives a salt, the structure may show the parent alone.

Legend:
Type in all cases: cell-based
[1] = target: T1, human TRPM8 (Homo sapiens, UniProt Q7Z2W7); test: In vitro human TRPM8 automated patch-clamp assay (SyncroPatch 384PE, CHO cells); details: CHO cells expressing human TRPM8, 28° C.
T1 construct: expressed in transfected cells; host or cells: CHO (p658 mammalian expression vector)
T1 sequence (Q7Z2W7 whole entry): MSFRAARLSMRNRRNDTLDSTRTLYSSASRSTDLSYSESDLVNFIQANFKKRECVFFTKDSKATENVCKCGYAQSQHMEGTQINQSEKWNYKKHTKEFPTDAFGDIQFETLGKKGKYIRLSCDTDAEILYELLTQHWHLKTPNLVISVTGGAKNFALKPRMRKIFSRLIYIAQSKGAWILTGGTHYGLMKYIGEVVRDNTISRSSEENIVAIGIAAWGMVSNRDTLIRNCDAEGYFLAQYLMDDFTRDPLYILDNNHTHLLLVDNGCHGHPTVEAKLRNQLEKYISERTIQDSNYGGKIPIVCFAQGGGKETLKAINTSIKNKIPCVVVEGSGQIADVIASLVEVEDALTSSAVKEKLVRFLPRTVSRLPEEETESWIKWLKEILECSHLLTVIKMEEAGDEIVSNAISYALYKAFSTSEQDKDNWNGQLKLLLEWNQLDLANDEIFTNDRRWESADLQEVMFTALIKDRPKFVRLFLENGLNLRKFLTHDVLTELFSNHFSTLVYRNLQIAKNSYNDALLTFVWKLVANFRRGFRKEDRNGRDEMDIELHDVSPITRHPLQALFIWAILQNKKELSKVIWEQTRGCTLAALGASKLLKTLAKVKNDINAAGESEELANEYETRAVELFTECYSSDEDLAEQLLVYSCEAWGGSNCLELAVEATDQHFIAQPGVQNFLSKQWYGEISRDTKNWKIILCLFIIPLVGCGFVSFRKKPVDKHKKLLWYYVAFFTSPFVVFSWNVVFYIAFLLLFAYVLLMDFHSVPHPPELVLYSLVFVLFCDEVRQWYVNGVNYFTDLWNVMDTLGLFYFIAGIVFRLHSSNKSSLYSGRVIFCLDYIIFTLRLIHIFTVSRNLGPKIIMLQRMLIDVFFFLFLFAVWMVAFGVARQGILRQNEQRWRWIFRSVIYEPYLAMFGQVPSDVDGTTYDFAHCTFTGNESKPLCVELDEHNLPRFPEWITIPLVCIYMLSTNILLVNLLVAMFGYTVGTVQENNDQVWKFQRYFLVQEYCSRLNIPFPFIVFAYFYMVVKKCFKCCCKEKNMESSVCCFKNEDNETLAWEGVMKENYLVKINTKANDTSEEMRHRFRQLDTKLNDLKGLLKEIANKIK
Experimental: (§1) In Vitro Pig and Human TRPM8 Automated Patch-Clamp Assays
(§2) Automated whole-cell recordings of compound effects were performed on the SyncroPatch 384PE (Nanion Technologies, Munich, Germany) incorporated into a Biomek FX pipetting robot (Beckman Coulter, Jersey City, NJ, USA) using the same engineered CHO cell lines expressing human or pig TRPM8 channels. Data acquisition and analysis were performed with the proprietary software PatchControl 384 and DataControl 384, respectively (Nanion Technologies, Munich, Germany). All recordings were carried out using planar borosilicate glass patch clamp chips in a 384-microtiter plate format with patch hole resistances of 2-4 MO. For recordings, standard intracellular solution was used containing (in mM): 130 KF, 4 NaCl, 1 MgCl2, 0.5 CaCl2, 10 HEPES and 10 EGTA/KOH (pH 7.2) and standard extracellular solution contained in mM: 150 NaCl, 4 KCl, 0.5 CaCl2, 1 MgCl2 and 10 HEPES (pH 7.3).
(§3) Prior to the electrophysiological measurements, cells were harvested using Accutase (GIBCO, Fisher Scientific) and resuspended in warmed extracellular solution. The cell suspension was kept in the dedicated cell reservoir at 28° C. at a 1 million/ml cell density and shaken at 500 rounds per min (rpm). Experiments were performed at 28° C. throughout. Cells were distributed in high resistance 4-holes-per-well Nanion chips where they were caught on the patch holes by application of a −80 mbar pressure. The cell membrane was ruptured to obtain the whole-cell configuration with a pressure pulse of −250 mbar for 2 seconds. Voltage protocols were constructed using PatchControl 384. The cells were held at a holding potential of −60 mV and TRPM8 currents were recorded using a ramp protocol from −80 to +80 mV every 5 seconds before and after compound addition. Resulting currents were recorded at both −80 and +80 mV and current kinetics were exported and analyzed. From each plate, control wells with 200 μM menthol were recorded to validate the assay. One concentration of compound was applied to each of the other wells. For each concentration, compound response was determined by subtracting the baseline current recorded before compound addition from the maximum peak elicited currents obtained after compound addition. Then, each compound response was normalized to control condition without compound and maximum current (Emax) obtained for each compound. Nanion DataControl 384 software plotted current response for each compound concentration and was able to calculate an EC50 value for each active compound.

[2] = target: T1, human TRPM8; test: In vitro human TRPM8 fluorescence calcium flux assay (recombinant CHO cells, Fluo4-AM, FDSS6000); details: recombinant CHO cells expressing human TRPM8; menthol-related EC50, normalized to 100 μM menthol
In short: (§4)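 CHO cells stably expressing pig or human TRPM8, loaded with 2 μM Fluo4-AM in HBSS/20 mM HEPES/0.1% BSA/2.5 mM probenecid for 1 h at RT. Intracellular calcium read kinetically for 3 min after compound addition. EC50 from sixteen-point curves, normalized to 100 μM menthol maximal response.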

[3] = target: T2, pig TRPM8 (Sus scrofa, UniProt F1SM15); test: In vitro pig TRPM8 automated patch-clamp assay (SyncroPatch 384PE, CHO cells); details: CHO cells expressing pig TRPM8, 28° C.
T2 construct: expressed in transfected cells; host or cells: CHO (pcDNA5/FRT/TO vector; hygromycin B and blasticidin selection)
T2 sequence (F1SM15 1-1104): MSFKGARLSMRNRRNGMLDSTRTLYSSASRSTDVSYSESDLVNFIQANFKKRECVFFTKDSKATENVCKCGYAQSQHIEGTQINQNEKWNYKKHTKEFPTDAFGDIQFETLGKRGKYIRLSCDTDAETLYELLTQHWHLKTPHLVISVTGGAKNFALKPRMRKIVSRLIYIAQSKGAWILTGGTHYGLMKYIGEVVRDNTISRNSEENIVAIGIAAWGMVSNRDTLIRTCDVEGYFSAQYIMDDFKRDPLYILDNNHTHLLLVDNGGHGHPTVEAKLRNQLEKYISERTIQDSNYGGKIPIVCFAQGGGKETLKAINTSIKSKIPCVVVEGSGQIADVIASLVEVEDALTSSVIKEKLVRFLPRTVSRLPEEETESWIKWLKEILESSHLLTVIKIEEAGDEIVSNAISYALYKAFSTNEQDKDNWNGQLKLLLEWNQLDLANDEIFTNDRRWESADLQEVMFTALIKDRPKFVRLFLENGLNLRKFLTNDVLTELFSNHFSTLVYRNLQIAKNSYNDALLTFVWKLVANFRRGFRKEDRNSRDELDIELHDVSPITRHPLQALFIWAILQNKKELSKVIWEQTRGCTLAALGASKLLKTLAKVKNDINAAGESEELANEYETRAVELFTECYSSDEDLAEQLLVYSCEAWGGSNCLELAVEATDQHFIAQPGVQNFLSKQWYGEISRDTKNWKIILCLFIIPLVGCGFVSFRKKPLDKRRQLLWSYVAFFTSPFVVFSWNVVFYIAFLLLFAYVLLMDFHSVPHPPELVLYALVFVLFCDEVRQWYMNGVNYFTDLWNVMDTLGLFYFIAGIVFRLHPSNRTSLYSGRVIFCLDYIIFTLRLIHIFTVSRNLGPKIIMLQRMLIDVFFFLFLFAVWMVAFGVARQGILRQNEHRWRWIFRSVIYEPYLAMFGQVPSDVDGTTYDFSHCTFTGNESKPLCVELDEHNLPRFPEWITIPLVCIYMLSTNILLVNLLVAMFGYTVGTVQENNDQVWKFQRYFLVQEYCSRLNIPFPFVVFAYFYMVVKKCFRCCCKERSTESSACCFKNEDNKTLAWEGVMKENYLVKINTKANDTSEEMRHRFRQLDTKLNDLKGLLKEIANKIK
Experimental: as §1, §2, §3

[4] = target: T2, pig TRPM8; test: In vitro pig TRPM8 fluorescence calcium flux assay (recombinant CHO cells, Fluo4-AM, FDSS6000); details: recombinant CHO cells expressing pig TRPM8; menthol-related EC50, normalized to 100 μM menthol
In short: as §4

Row | Compound | pEC50 [1] | pEC50 [2] | pEC50 [3] | pEC50 [4]
1 | CC(C)[C@@H]1CC[C@@H](C)C[C@@]1(O)C(=O)NCC(NC(=O)CN)c1ccccc1 (single isomer, unassigned) [Example 183] | 6.92 | 8.57 | 7.70 | 8.55
2 | CC(C)[C@@H]1CC[C@@H](C)C[C@@]1(O)C(=O)NCC(O)c1ccccc1O (stereo partly drawn) [Example 35, (1S,2S,5R)-1-hydroxy-N-(2-hydroxy-2-(2-hydroxyphenyl)ethyl)-2-isopropyl-5-methylcyclohexane-1-carboxamide] | 6.00 | 8.52 | 5.88 | 8.52
3 | CC(C)[C@@H]1CC[C@@H](C)C[C@@]1(O)C(=O)NCCc1ccccc1OC[C@H](O)CO [Example 24, (1S,2S,5R)—N-(2-((R)-2,3-dihydroxypropoxy)phenethyl)-1-hydroxy-2-isopropyl-5-methylcyclohexane-1-carboxamide] | 5.59 | 8.11 | 5.77 | 7.87
4 | CC(C)[C@@H]1CC[C@@H](C)C[C@@]1(O)C(=O)NCC(O)c1ccccc1Cl (stereo partly drawn) [Example 160, (1S,2S,5R)-N-[2-(2-chlorophenyl)-2-hydroxy-ethyl]-1-hydroxy-2-isopropyl-5-methyl-cyclohexanecarboxamide] | 6.21 | 7.79 | 6.32 | 7.79
5 | COC(=O)COc1ccccc1C(O)CNC(=O)[C@]1(O)C[C@H](C)CC[C@H]1C(C)C (stereo partly drawn) [Example 36, methyl 2-(2-(1-hydroxy-2-((1S,2S,5R)-1-hydroxy-2-isopropyl-5-methylcyclohexane-1-carboxamido)ethyl)phenoxy)acetate] | 5.73 | 7.33 | 5.42 | 7.44
6 | CC(C)[C@@H]1CC[C@@H](C)C[C@@]1(O)C(=O)NC[C@H](O)c1cccc(CO)c1 [Example 43, (1S,2S,5R)-1-hydroxy-N-((2R)-hydroxy-2-(3-(hydroxymethyl)phenyl)ethyl)-2-isopropyl-5-methylcyclohexane-1-carboxamide] | 5.40 | 6.72 | 5.40 | 7.24
7 | COC(=O)[C@@H](N)Cc1cccc(CCNC(=O)[C@]2(O)C[C@H](C)CC[C@H]2C(C)C)c1 [Example 20, methyl (S)-2-amino-3-(3-(2-((1S,2S,5R)-1-hydroxy-2-isopropyl-5-methylcyclohexane-1-carboxamido)ethyl)phenyl)propanoate] | 5.85 | 8.49 | 5.85 | 8.18
8 | CC(C)[C@@H]1CC[C@@H](C)C[C@@]1(O)C(=O)NCC(=O)c1cccs1 [Example 149, (1S,2S,5R)-1-hydroxy-2-isopropyl-5-methyl-N-[2-oxo-2-(2-thienyl)ethyl]cyclohexanecarboxamide] | 5.64 | 8.22 | 5.81 | 8.70
9 | COc1ccccc1CCNC(=O)[C@]1(O)C[C@H](C)CC[C@H]1C(C)C [Example 155, (1S,2S,5R)-1-hydroxy-2-isopropyl-N-[2-(2-methoxyphenyl)ethyl]-5-methyl-cyclohexanecarboxamide] | 5.92 | 7.62 | 5.46 | 7.76
10 | CC(C)[C@@H]1CC[C@@H](C)C[C@@]1(O)C(=O)NCCc1ccc(O)cc1 [Example 117, (1S,2S,5R)-1-hydroxy-N-[2-(4-hydroxyphenyl)ethyl]-2-isopropyl-5-methyl-cyclohexanecarboxamide] | 5.60 | 7.75 | 5.63 | 8.35
11 | CC(C)[C@@H]1CC[C@@H](C)C[C@@]1(O)C(=O)NC[C@@H](OCC(=O)O)c1ccccc1 [Example 55, 2-((S)-2-((1S,2S,5R)-1-hydroxy-2-isopropyl-5-methylcyclohexane-1-carboxamido)-1-phenylethoxy)acetic acid] | 5.35 | 6.99 | 5.45 | 7.27
12 | CC(C)[C@@H]1CC[C@@H](C)C[C@@]1(O)C(=O)NCC(=O)c1ccc(F)c(F)c1 [Example 136, (1S,2S,5R)-N-[2-(3,4-difluorophenyl)-2-oxo-ethyl]-1-hydroxy-2-isopropyl-5-methyl-cyclohexanecarboxamide] | 6.21 | 8.57 | 6.29 | 8.89
13 | CC(C)[C@@H]1CC[C@@H](C)C[C@@]1(O)C(=O)NCC(NC(=O)[C@H](C)N)c1ccccc1 (single isomer, unassigned) [Example 182] | 7.18 | 8.43 | 7.28 | 8.42
14 | CC(C)[C@@H]1CC[C@@H](C)C[C@@]1(O)C(=O)NCC1(O)CCc2ccc(Cl)cc21 (stereo partly drawn) [Example 145, (1S,2S,5R)-N-[(6-chloro-1-hydroxy-indan-1-yl)methyl]-1-hydroxy-2-isopropyl-5-methyl-cyclohexanecarboxamide] | 6.64 | 8.54 | 6.29 | 8.57
15 | CC(C)[C@@H]1CC[C@@H](C)C[C@@]1(O)C(=O)NCC(=O)c1cccc(O)c1 [Example 39, (1S,2S,5R)-1-hydroxy-N-(2-(3-hydroxyphenyl)-2-oxoethyl)-2-isopropyl-5-methylcyclohexane-1-carboxamide] | 6.34 | 8.92 | 6.37 | 9.05
16 | COC(=O)Cc1cccc(CCNC(=O)[C@]2(O)C[C@H](C)CC[C@H]2C(C)C)c1 [Example 74, methyl 2-(3-(2-((1S,2S,5R)-1-hydroxy-2-isopropyl-5-methylcyclohexane-1-carboxamido)ethyl)phenyl)acetate] | 5.54 | 7.39 | 5.29 | 8.05
17 | CC(C)[C@@H]1CC[C@@H](C)C[C@@]1(O)C(=O)NC[C@@H](O)c1cccc(CO)c1 [Example 44, (1S,2S,5R)-1-hydroxy-N-((2S)-hydroxy-2-(3-(hydroxymethyl)phenyl)ethyl)-2-isopropyl-5-methylcyclohexane-1-carboxamide] | 5.74 | 7.46 | 6.15 | 7.97
18 | CC(C)[C@@H]1CC[C@@H](C)C[C@@]1(O)C(=O)NCCOc1ccccc1 [Example 120, (1S,2S,5R)-1-hydroxy-2-isopropyl-5-methyl-N-(2-phenoxyethyl)cyclohexanecarboxamide] | 5.44 | 7.51 | 5.25 | 7.86
19 | CC(C)[C@@H]1CC[C@@H](C)C[C@@]1(O)C(=O)NCC(=O)c1ccccc1F [Example 85, (1S,2S,5R)—N-(2-(2-fluorophenyl)-2-oxoethyl)-1-hydroxy-2-isopropyl-5-methylcyclohexane-1-carboxamide] | 6.15 | 8.48 | 6.01 | 8.62
20 | COC(=O)C(CNC(=O)[C@]1(O)C[C@H](C)CC[C@H]1C(C)C)c1ccccc1 (some centres unmarked) [Example 69] | 5.71 | 7.34 | 5.80 | 7.38
21 | CC(C)[C@@H]1CC[C@@H](C)C[C@@]1(O)C(=O)NCCc1cccc(C(=O)OCCN)c1 [Example 16, 2-aminoethyl 3-(2-((1S,2S,5R)-1-hydroxy-2-isopropyl-5-methylcyclohexane-1-carboxamido)ethyl) benzoate hydrochloride] | 5.89 | 7.80 | 5.63 | 7.89
22 | CC(CNC(=O)[C@]1(O)C[C@H](C)CC[C@H]1C(C)C)c1ccccc1 (stereo partly drawn) [Example 156, (1S,2S,5R)-1-hydroxy-2-isopropyl-5-methyl-N-(2-phenylpropyl)cyclohexanecarboxamide] | 5.74 | 7.37 | 5.72 | 7.67
23 | CC(C)[C@@H]1CC[C@@H](C)C[C@@]1(O)C(=O)NCCc1ccccc1OCCN [Example 6, (1S,2S,5R)—N-(2-(2-aminoethoxy)phenethyl)-1-hydroxy-2-isopropyl-5-methylcyclohexane-1-carboxamide] | 7.14 | 9.52 | 6.63 | 9.30
